Patent publication US9079901B2, “Fused heterocyclic compounds as ion channel modulators” (Gilead Sciences, Inc., priority 2010, dated 2015)

Biological target: wild-type human cardiac sodium channel, hNav1.5 (late sodium current) in HEK293 cells (Homo sapiens, UniProt Q14524)
Assay: Late INa screening assay (automated whole-cell patch clamp, PatchXpress)
Format: cell-based
Details: HEK293, compound at 1 μM; late INa generated with 10 μM Tefluthrin (or 50 nM ATX II); HEK293 hNav1.5; read-out: Late INa 1 μM (percent block of late INa)
Procedure, shortened: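 Percent block was derived from mean current 225–250 ms into a 250 ms depolarisation to −20 mV (holding −120 mV, every 10 s), normalised to the current left in Na-free solution. Whole-cell recordings came from HEK293 cells stably expressing α-subunit-only hNav1.5, at 24–27 °C. Late current was enhanced with 10 μM tefluthrin or 50 nM ATX II, then compound (typically 10 μM) was added three times over 7–8 min.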

wild-type human cardiac sodium channel, hNav1.5 (late sodium current) in HEK293 cells, sequence (Q14524 whole entry): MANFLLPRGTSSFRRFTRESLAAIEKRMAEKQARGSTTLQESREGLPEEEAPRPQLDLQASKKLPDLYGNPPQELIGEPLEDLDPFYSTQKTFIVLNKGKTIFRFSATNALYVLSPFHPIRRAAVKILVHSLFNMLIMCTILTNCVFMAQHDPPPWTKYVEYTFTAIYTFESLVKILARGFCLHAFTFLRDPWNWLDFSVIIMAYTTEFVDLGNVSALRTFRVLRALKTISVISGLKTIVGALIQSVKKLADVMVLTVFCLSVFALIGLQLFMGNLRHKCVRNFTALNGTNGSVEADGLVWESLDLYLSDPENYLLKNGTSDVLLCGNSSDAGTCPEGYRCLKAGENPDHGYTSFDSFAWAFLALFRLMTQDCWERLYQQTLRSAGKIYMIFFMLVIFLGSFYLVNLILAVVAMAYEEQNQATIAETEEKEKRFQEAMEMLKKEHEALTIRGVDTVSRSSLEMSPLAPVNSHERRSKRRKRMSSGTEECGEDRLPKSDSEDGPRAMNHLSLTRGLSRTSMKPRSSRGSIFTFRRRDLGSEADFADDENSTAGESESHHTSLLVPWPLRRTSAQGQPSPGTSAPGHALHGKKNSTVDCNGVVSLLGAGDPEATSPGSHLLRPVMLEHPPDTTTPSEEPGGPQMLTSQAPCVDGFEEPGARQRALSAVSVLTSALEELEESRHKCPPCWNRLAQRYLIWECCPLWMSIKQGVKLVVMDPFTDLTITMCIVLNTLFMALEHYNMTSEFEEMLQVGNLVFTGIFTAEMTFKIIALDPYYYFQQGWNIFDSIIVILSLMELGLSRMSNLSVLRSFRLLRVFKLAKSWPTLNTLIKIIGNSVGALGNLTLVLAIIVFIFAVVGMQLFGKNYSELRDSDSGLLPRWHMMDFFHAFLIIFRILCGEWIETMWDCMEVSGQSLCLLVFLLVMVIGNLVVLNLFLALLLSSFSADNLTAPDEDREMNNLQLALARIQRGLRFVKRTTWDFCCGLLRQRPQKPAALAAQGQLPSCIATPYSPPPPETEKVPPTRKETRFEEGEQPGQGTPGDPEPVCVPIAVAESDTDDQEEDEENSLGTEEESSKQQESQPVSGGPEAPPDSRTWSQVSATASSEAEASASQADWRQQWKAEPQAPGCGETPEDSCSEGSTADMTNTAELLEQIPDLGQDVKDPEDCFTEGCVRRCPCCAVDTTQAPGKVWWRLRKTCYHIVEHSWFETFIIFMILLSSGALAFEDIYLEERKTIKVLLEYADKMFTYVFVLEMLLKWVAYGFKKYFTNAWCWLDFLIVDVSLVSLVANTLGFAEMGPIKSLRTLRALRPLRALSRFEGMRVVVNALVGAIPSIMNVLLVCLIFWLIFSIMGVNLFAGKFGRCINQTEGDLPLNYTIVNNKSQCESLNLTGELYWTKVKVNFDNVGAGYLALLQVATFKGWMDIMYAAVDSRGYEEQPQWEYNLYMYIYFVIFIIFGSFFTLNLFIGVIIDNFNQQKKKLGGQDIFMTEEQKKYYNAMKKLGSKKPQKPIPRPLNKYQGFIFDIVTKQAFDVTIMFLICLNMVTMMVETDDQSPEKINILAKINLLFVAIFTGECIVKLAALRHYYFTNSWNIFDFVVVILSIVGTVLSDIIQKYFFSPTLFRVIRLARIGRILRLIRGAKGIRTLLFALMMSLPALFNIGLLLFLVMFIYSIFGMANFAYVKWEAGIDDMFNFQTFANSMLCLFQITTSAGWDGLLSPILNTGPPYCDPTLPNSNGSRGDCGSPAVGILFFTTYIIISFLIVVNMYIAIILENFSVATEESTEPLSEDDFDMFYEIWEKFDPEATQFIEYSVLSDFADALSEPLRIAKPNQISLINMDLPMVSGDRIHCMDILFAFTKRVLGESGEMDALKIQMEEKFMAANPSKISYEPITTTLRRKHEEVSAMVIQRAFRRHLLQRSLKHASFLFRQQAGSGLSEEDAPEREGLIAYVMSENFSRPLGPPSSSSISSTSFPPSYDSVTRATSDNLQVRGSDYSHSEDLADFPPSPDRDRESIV

SMILES	inhibition at 1 µM
Cc1noc(Cn2nc3ccc(-c4ccc(OC(F)(F)F)cc4)cn3c2=O)n1 [compound 1, 2-((3-methyl-1,2,4-oxadiazol-5-yl)methyl)-6-(4-(trifluoromethoxy)phenyl)-[1,2,4]triazolo[4,3-a]pyridin-3(2H)-one]	27.5%
Cc1ccn(CCn2nc3ccc(-c4ccc(OC(F)(F)F)cc4)cn3c2=O)n1 [compound 42, 2-(2-(3-methyl-1H-pyrazol-1-yl)ethyl)-6-(4-(trifluoromethoxy)phenyl)-[1,2,4]triazolo[4,3-a]pyridin-3(2H)-one]	18.9%
Cc1ncc(Cn2nc3ccc(-c4ccc(C(F)(F)F)cc4)cn3c2=O)o1 [compound 197, 2-((2-methyloxazol-5-yl)methyl)-6-(4-(trifluoromethyl)phenyl)-[1,2,4]triazolo[4,3-a]pyridin-3(2H)-one]	19.7%
O=c1n(CCOc2cnc(Cl)nc2)nc2ccc(-c3ccc(OC(F)(F)F)cc3)cn12 [compound 139, 2-(2-(2-chloropyrimidin-5-yloxy)ethyl)-6-(4-(trifluoromethoxy)phenyl)-[1,2,4]triazolo[4,3-a]pyridin-3(2H)-one]	20.2%
COc1cc(F)ccc1OCCCn1nc2ccc(-c3ccc(OC(F)(F)F)cc3)cn2c1=O [compound 67, 2-(3-(4-fluoro-2-methoxyphenoxy)propyl)-6-(4-(trifluoromethoxy)phenyl)-[1,2,4]triazolo[4,3-a]pyridin-3(2H)-one]	19.2%
CSc1ccnc(OCCn2nc3ccc(-c4ccc(OC(F)(F)F)cc4)cn3c2=O)n1 [compound 159, 2-(2-(4-(methylthio)pyrimidin-2-yloxy)ethyl)-6-(4-(trifluoromethoxy)phenyl)-[1,2,4]triazolo[4,3-a]pyridin-3(2H)-one]	49.6%
COc1cc(F)ccc1OCC(Cn1nc2ccc(-c3ccc(OC(F)(F)F)cc3)cn2c1=O)OC (centres unmarked) [compound 104, 2-(3-(4-fluoro-2-methoxyphenoxy)-2-methoxypropyl)-6-(4-(trifluoromethoxy)phenyl)-[1,2,4]triazolo[4,3-a]pyridin-3(2H)-one]	41.5%
COC[C@@H](Cn1nc2ccc(-c3ccc(OC(F)(F)F)cc3)cn2c1=O)Oc1ncccc1C(F)(F)F [compound 72, (R)-2-(3-methoxy-2-(3-(trifluoromethyl)pyridin-2-yloxy)propyl)-6-(4-(trifluoromethoxy)phenyl)-[1,2,4]triazolo[4,3-a]pyridin-3(2H)-one]	41.9%
CC(C)n1nc2ccc(-c3ccc(OC(F)(F)F)cc3)cn2c1=O [compound 190, 2-isopropyl-6-(4-(trifluoromethoxy)phenyl)-[1,2,4]triazolo[4,3-a]pyridin-3(2H)-one]	17.6%
CN(C)c1nc(OCCn2nc3ccc(-c4ccc(OC(F)(F)F)cc4)cn3c2=O)ncc1F [compound 126, 2-(2-(4-(dimethylamino)-5-fluoropyrimidin-2-yloxy)ethyl)-6-(4-(trifluoromethoxy)phenyl)-[1,2,4]triazolo[4,3-a]pyridin-3(2H)-one]	32.6%
Cc1nonc1Cn1nc2ccc(-c3ccc(OC(F)(F)F)cc3)cn2c1=O [compound 2, 2-((4-methyl-1,2,5-oxadiazol-3-yl)methyl)-6-(4-(trifluoromethoxy)phenyl)-[1,2,4]triazolo[4,3-a]pyridin-3(2H)-one]	41.3%
COc1ccccc1OCC(Cn1nc2ccc(-c3ccc(OC(F)(F)F)cc3)cn2c1=O)OC (centres unmarked) [compound 23, 2-(2-methoxy-3-(2-methoxyphenoxy)propyl)-6-(4-(trifluoromethoxy)phenyl)-[1,2,4]triazolo[4,3-a]pyridin-3(2H)-one]	55.1%
O=c1n(CCCc2ccc(F)c(Br)c2)nc2ccc(-c3ccc(OC(F)(F)F)cc3)cn12 [compound 64, 2-(3-(3-bromo-4-fluorophenyl)propyl)-6-(4-(trifluoromethoxy)phenyl)-[1,2,4]triazolo[4,3-a]pyridin-3(2H)-one]	16.7%
O=c1n(CCc2ncccc2C2CC2)nc2ccc(-c3ccc(OC(F)(F)F)cc3)cn12 [compound 60, 2-(2-(3-cyclopropylpyridin-2-yl)ethyl)-6-(4-(trifluoromethoxy)phenyl)-[1,2,4]triazolo[4,3-a]pyridin-3(2H)-one]	34.1%
CC1(C)OC[C@@H](c2nc(Cn3nc4ccc(-c5ccc(OC(F)(F)F)cc5)cn4c3=O)no2)O1 [compound 152, (S)-2-((5-(2,2-dimethyl-1,3-dioxolan-4-yl)-1,2,4-oxadiazol-3-yl)methyl)-6-(4-(trifluoromethoxy)phenyl)-[1,2,4]triazolo[4,3-a]pyridin-3(2H)-one]	10.7%
Cc1nc2ccc(OCC(O)Cn3nc4ccc(-c5ccc(OC(F)(F)F)cc5)cn4c3=O)cc2s1 (centres unmarked) [compound 107, 2-(2-hydroxy-3-(2-methylbenzo[d]thiazol-6-yloxy)propyl)-6-(4-(trifluoromethoxy)phenyl)-[1,2,4]triazolo[4,3-a]pyridin-3(2H)-one]	22.4%

SMILES	inhibition at 1 µM
O=c1n(Cc2nc3ccccc3s2)nc2ccc(-c3ccc(OC(F)(F)F)cc3)cn12 [compound 20, 2-(benzo[d]thiazol-2-ylmethyl)-6-(4-(trifluoromethoxy)phenyl)-[1,2,4]triazolo[4,3-a]pyridin-3(2H)-one]	17.4%
O=c1n(CCOc2ncc(C(F)(F)F)cn2)nc2ccc(-c3ccc(OC(F)(F)F)cc3)cn12 [compound 180, 6-(4-(trifluoromethoxy)phenyl)-2-(2-(5-(trifluoromethyl)pyrimidin-2-yloxy)ethyl)-[1,2,4]triazolo[4,3-a]pyridin-3(2H)-one]	22.6%
CC(C)(C)c1cnc(Cn2nc3ccc(-c4ccc(OC(F)(F)F)cc4)cn3c2=O)o1 [compound 183, 2-((5-tert-butyloxazol-2-yl)methyl)-6-(4-(trifluoromethoxy)phenyl)-[1,2,4]triazolo[4,3-a]pyridin-3(2H)-one]	14.6%
O=c1n(Cc2ccc3nonc3c2)nc2ccc(-c3ccc(OC(F)(F)F)cc3)cn12 [compound 10, 2-(benzo[c][1,2,5]oxadiazol-5-ylmethyl)-6-(4-(trifluoromethoxy)phenyl)-[1,2,4]triazolo[4,3-a]pyridin-3(2H)-one]	16.9%
O=c1n(CCOc2nccc3ccccc23)nc2ccc(-c3ccc(OC(F)(F)F)cc3)cn12 [compound 141, 2-(2-(isoquinolin-1-yloxy)ethyl)-6-(4-(trifluoromethoxy)phenyl)-[1,2,4]triazolo[4,3-a]pyridin-3(2H)-one]	29.9%
O=c1n(CCN2CCC(Oc3ccccc3)C2)nc2ccc(-c3ccc(OC(F)(F)F)cc3)cn12 (centres unmarked) [compound 39, 2-(2-(3-phenoxypyrrolidin-1-yl)ethyl)-6-(4-(trifluoromethoxy)phenyl)-[1,2,4]triazolo[4,3-a]pyridin-3(2H)-one]	45.4%
O=c1n(CCc2cccnc2)nc2ccc(-c3ccc(OC(F)(F)F)cc3)cn12 [compound 73, 2-(2-(pyridin-3-yl)ethyl)-6-(4-(trifluoromethoxy)phenyl)-[1,2,4]triazolo[4,3-a]pyridin-3(2H)-one]	10.4%
N#Cc1ccccc1OCCCn1nc2ccc(-c3ccc(OC(F)(F)F)cc3)cn2c1=O [compound 70, 2-(3-(3-oxo-6-(4-(trifluoromethoxy)phenyl)-[1,2,4]triazolo[4,3-a]pyridin-2(3H)-yl)propoxy)benzonitrile]	29.9%
O=c1n(Cc2coc(C3CC3)n2)nc2ccc(-c3ccc(OC(F)(F)F)cc3)cn12 [compound 181, 2-((2-cyclopropyloxazol-4-yl)methyl)-6-(4-(trifluoromethoxy)phenyl)-[1,2,4]triazolo[4,3-a]pyridin-3(2H)-one]	23.9%
O=c1n(CCn2cnc(-c3ccccc3)c2)nc2ccc(-c3ccc(OC(F)(F)F)cc3)cn12 [compound 45, 2-(2-(4-phenyl-1H-imidazol-1-yl)ethyl)-6-(4-(trifluoromethoxy)phenyl)-[1,2,4]triazolo[4,3-a]pyridin-3(2H)-one]	11.8%
O=c1n(Cc2ncc(C3CC3)o2)nc2ccc(-c3ccc(OC(F)(F)F)cc3)cn12 [compound 199, 2-((5-cyclopropyloxazol-2-yl)methyl)-6-(4-(trifluoromethoxy)phenyl)-[1,2,4]triazolo[4,3-a]pyridin-3(2H)-one]	22.5%
O=c1n(CCCc2ccc(F)c(-c3cccnc3)c2)nc2ccc(-c3ccc(OC(F)(F)F)cc3)cn12 [compound 121, 2-(3-(4-fluoro-3-(pyridin-3-yl)phenyl)propyl)-6-(4-(trifluoromethoxy)phenyl)-[1,2,4]triazolo[4,3-a]pyridin-3(2H)-one]	13.1%
O=c1n(CCOc2nccc(OCC(F)(F)F)n2)nc2ccc(-c3ccc(OC(F)(F)F)cc3)cn12 [compound 178, 2-(2-(4-(2,2,2-trifluoroethoxy)pyrimidin-2-yloxy)ethyl)-6-(4-(trifluoromethoxy)phenyl)-[1,2,4]triazolo[4,3-a]pyridin-3(2H)-one]	14.2%
O=c1n(CCOc2ccccn2)nc2ccc(-c3ccc(OC(F)(F)F)cc3)cn12 [compound 49, 2-(2-(pyridin-2-yloxy)ethyl)-6-(4-(trifluoromethoxy)phenyl)-[1,2,4]triazolo[4,3-a]pyridin-3(2H)-one]	29.9%
Cc1cc(Cn2nc3ccc(-c4ccc(OC(F)(F)F)cc4)cn3c2=O)on1 [compound 164, 2-((3-methylisoxazol-5-yl)methyl)-6-(4-(trifluoromethoxy)phenyl)-[1,2,4]triazolo[4,3-a]pyridin-3(2H)-one]	16.9%
COCc1noc(Cn2nc3ccc(-c4ccc(C(F)(F)F)cc4)cn3c2=O)n1 [compound 168, 2-((3-(methoxymethyl)-1,2,4-oxadiazol-5-yl)methyl)-6-(4-(trifluoromethyl)phenyl)-[1,2,4]triazolo[4,3-a]pyridin-3(2H)-one]	19.1%
